Results as given in patent publication US5703093A, “Compounds and methods for the treatment of cardiovascular, inflammatory and immune disorders” (Cytomed, Inc., priority 1995, dated 1997).
Where “and” joins values, the source holds several entries; their conditions need not be identical. Equal entries are not always repeated.

Assays:
PAF = PAF (Homo sapiens, UniProt P25105); conditions: reported in the literature; cited from earlier work
5-lipoxygenase = molecular target: T1, 5-lipoxygenase (Homo sapiens, UniProt P09917); conditions: reported in the literature; cited from earlier work
T1 sequence (P09917 1-674): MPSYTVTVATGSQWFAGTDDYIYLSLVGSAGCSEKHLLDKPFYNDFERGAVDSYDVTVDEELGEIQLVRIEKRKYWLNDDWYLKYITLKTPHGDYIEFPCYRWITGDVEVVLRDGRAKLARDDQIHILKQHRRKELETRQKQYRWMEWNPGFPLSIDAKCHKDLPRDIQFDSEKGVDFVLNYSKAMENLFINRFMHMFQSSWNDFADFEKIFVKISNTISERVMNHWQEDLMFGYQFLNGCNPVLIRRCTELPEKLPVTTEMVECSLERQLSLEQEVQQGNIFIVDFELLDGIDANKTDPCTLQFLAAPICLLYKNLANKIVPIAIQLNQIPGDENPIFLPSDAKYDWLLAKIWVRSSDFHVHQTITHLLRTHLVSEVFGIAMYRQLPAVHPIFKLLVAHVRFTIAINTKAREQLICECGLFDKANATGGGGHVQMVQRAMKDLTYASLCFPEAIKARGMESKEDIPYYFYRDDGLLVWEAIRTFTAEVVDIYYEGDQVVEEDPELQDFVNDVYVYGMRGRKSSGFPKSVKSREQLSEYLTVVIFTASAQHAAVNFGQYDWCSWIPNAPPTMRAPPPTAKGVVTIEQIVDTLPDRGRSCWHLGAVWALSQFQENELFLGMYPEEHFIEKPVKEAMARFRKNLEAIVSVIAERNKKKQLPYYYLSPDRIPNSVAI

[1] = test system: whole blood 5-lipoxygenase (LTB4); test: Ex-vivo rat whole blood 5-lipoxygenase evaluation (ex vivo LTB4); format: in vivo
[2] = molecular target: T2, Cytosol 5-Lipoxygenase of Rat Basophile Leukemia Cells (Rattus norvegicus, UniProt P12527); test: Effect on cytosol 5-lipoxygenase of rat basophile leukemia (RBL-2H3) cells; format: biochemical; conditions: RBL-2H3 cytosol preparation, [14C]arachidonic acid; repeat determinations
T2 construct: The supernatant was then removed and stored in aliquots; endogenous in cells; host or cells: RBL-2H3 (rat basophilic leukemia) cells, sonicate, 20,000 x g supernatant
T2 sequence (P12527 1-673): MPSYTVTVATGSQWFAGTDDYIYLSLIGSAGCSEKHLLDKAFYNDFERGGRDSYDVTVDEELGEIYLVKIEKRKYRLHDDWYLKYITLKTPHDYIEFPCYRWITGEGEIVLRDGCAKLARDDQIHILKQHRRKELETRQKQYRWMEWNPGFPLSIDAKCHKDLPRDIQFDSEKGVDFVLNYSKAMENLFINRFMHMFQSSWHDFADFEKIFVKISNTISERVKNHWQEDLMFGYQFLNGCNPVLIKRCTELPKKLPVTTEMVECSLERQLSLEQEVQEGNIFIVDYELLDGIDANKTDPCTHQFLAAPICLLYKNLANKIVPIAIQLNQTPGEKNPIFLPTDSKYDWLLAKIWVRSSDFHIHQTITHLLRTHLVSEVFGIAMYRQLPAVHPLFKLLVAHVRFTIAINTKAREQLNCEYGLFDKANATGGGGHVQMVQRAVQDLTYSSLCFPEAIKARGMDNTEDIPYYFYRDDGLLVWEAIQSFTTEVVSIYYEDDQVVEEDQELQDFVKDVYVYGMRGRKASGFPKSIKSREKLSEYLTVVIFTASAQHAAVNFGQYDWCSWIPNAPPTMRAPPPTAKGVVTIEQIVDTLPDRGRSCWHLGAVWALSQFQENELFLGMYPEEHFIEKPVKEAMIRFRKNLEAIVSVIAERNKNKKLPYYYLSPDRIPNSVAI
Method: A wide variety of biological assays have also been used to evaluate the ability of a compound to inhibit the enzyme 5-lipoxygenase. For example, a cytosol 5-lipoxygenase of rat basophilic leukemia cells (RBL) has been widely utilized in studies on leukotriene biosynthesis. Compounds that inhibit 5-lipoxygenase decrease the levels of leukotrienes.
Effect of Compounds on Cytosol 5-Lipoxygenase of Rat Basophile Leukemia Cells
RBL-2H3 cells were grown to confluence in tissue culture flasks according to Carter et al. (J PharmExp Ther 256(3); 929-937, 1991). The cells were harvested and washed five times in calcium-and magnesium-free D-PBS. The cells were suspended at 2×10^7 /ml in 10 mM BES, 10 mM PIPES, pH 6.8, 1 mM EDTA, and then sonicated. […]
The 5-LO activity in the RBL-2H3 preparation was determined as follows: 0.1 ml reactions consisting of 0.7 mM CaCl2, 100 mM NaCl, 1 mM EDTA, 10 mM BES, 10 MM PIPES, pH 7.4, varying concentrations of test compound dissolved in DMSO (7.5% DMSO final in assay), and an amount of the RBL-2H3 preparation that will convert 15% of the arachidonic acid substrate mixture to oxygenated products (determined experimentally for each RBL-2H3 preparation), were incubated for 20 minutes at room temperature. […] The film was developed, scanned using a densitometer, and the peak areas of arachidonic acid and its product(s) are calculated. […]

[3] = test system: Leukotriene B4 Production in Ionophore-stimulated human whole blood; test: Inhibition of leukotriene B4 production in ionophore-stimulated human whole blood (HWB); format: cell-based; conditions: A23187-stimulated, LTB4 by EIA, repeat determinations
Method: Another biological assay used to evaluate the ability of a compound to inhibit the enzyme 5-lipoxygenase is based on the classic pharmacological model of inflammation induced by inhibition of LTB4 from ionophore stimulated human whole blood.
Inhibition of Leukotriene B4 Production in Ionophore-stimulated human whole blood
Human blood was drawn into heparinized blood collection tubes, and aliquoted in 1 ml portions into 1.5 ml microfuge tubes. Test compound ([…]) of varying concentrations, dissolved in DMSO, was added to the blood sample and incubated for 15 minutes at 37° C. Calcium ionophore ([…], A23187) in DMSO was added to a final concentration of […], and the samples were incubated for 30 minutes at 37° C. Samples are then centrifuged at 1100×g (2500 rpm, H1000B rotor, in a Sorvall centrifuge) for 10 minutes at 4° C. Supernatant ([…]) was transferred into a 1.5 ml microfuge tube, […] of cold methanol added, and proteins precipitated on ice for 30 minutes. The samples were centrifuged at 110×g for 10 minutes at 4° C., and the supernatant assayed for LTB4 using a commercially available EIA kit (Cayman Chemical) according to manufacturer's specifications.

[4] = test system: whole blood 5-lipoxygenase (LTB4); test: Ex-vivo mouse whole blood 5-lipoxygenase evaluation (ex vivo LTB4); format: in vivo; conditions: 3 mg/k iv
Method: Ex-vivo mouse whole blood 5-lipoxygenase evaluation
CD-1 female mice, weighing 18-25 grams, and CD female rats, weighing 150-230 grams, were obtained from Charles River Labs. Test compounds were dissolved in 0.5% DMSO in 0.9% NaCl for administration in mice (0.5 mg/ml) and in an alcohol vehicle (2% benzyl alcohol, 1% ethanol, 40% PEG 300, 10% propylene glycol, 47% of 5% dextrose and 3.5% pluronic F-68 in DiH2 O) for use in rats (5 mg/ml). […] Heparinized whole blood (0.3 ml) was added into 1.5 ml Eppendorf centrifuge tube containing […] of 2 mM calcium ionophore A23187 (the final concentration of A23187 was […]). The sample was incubated for 30 minutes in a water bath at 37° C., and then centrifuged for 2 minutes. The plasma was diluted (x120) and assayed for LTB4 using EIA.

Sequence of PAF (P25105 whole entry): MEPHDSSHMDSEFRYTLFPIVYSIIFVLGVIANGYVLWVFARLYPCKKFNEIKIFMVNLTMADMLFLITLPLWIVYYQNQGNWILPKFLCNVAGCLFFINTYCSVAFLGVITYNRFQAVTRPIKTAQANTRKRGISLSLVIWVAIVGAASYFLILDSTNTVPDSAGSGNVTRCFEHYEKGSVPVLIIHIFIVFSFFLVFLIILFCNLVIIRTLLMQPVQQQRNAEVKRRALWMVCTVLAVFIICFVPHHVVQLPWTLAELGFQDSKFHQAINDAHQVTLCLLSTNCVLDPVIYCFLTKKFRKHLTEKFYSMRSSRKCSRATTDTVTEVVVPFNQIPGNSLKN

Structure (SMILES): COc1cc([C@H]2CC[C@H](c3cc(OC)c(OC)c(OC)c3)S2)cc(OC)c1OC (relative stereo) [L-653,150, trans-2,5-bis-(3,4,5-trimethoxyphenyl)tetrahydrothiophene]
- PAF antagonism (PAF): potent PAF antagonist
- inhibition of 5-lipoxygenase (5-lipoxygenase): moderate inhibitor of 5-lipoxygenase

Structure (SMILES): NC(=O)N(O)CCC#C[C@H]1CC[C@@H](COc2ccc(F)cc2)O1
- ex vivo LTB4 % inh. ([1]; 2 mg/k po, 60 minutes): 86%
- ex vivo LTB4 % inh. ([1]; 2 mg/k po, 360 minutes): 63%
- IC50 [2]: 2000 nM and 1260 nM and 1560 nM and 880 nM
- IC50 [3]: 520 nM
- IC50 ([3]; Homo sapiens): 430 nM

Structure (SMILES): NC(=O)N(O)CCC#C[C@@H]1CC[C@@H](COc2ccc(F)cc2)O1
- ex vivo LTB4 % inh. ([1]; 2 mg/k po, 60 minutes): 93%
- ex vivo LTB4 % inh. ([1]; 2 mg/k po, 360 minutes): 5%
- ex vivo LTB4 % inh. ([1]; 5 mg/k po, 900 minutes): 29%
- ex vivo LTB4 % inh. ([4]; 15 minutes): 94%
- ex vivo LTB4 % inh. ([4]; 60 minutes): 86%
- ex vivo LTB4 % inh. ([4]; 180 minutes): 44%

Structure (SMILES): NC(=O)N(O)CCCC[C@@H]1CC[C@@H](COc2ccc(F)cc2)O1
- ex vivo LTB4 % inh. ([1]; 2 mg/k po, 900 minutes): 34%
- ex vivo LTB4 % inh. ([1]; 5 mg/k po, 900 minutes): 34%
- ex vivo LTB4 % inh. ([4]; 15 minutes): 89%
- ex vivo LTB4 % inh. ([4]; 60 minutes): 22%
- ex vivo LTB4 % inh. ([4]; 180 minutes): 36%
- IC50 ([3]; Homo sapiens): 153 nM

Structure (SMILES): NC(=O)N(O)CCC#C[C@H]1CC[C@H](COc2ccc(F)cc2)O1
- IC50 [2]: 1350 nM and 1380 nM
- IC50 [3]: 270 nM
- IC50 ([3]; Homo sapiens): 150 nM

Structure (SMILES): NC(=O)N(O)CCCC[C@H]1CC[C@H](COc2ccc(F)cc2)O1 (single isomer, unassigned)
- IC50 ([3]; Homo sapiens): 420 nM

Structure (SMILES): NC(=O)N(O)CCC#C[C@@H]1CC[C@H](COc2ccc(F)cc2)O1
- IC50 ([3]; Homo sapiens): 180 nM
